In patent US10246421B2, “Indazolyl- and indolyl-benzamide derivatives” (ESANEX, INC., priority 2014, dated 2019) one finds EC50 and IC50 data, which are given here for eleven molecules.

Holding throughout (type): cell-based
For one experiment, the system named is pS6. Briefly: A375 imaging assay, pS6 inhibition. The following applies: Homo sapiens, A-375, 24 hours treatment. How it is done:
(§1) Cells of multiple human tumor lines were plated in Packard Viewplate-96, incubated overnight, and then treated with test compound for 24 hours. Following treatment, cell monolayers were fixed using standard methods and treated with antibodies targeted to the indicated Hsp90 clients. Primary antibodies were detected using a fluoroscene isothiocyanate (FITC)-conjugated anti-mouse antibody and a tetramethyl rhodamine isothiocyanate (TRITC)-conjugated anti-rabbit antibody. Deoxyribonucleic acid was stained and images were obtained using the compartmental analysis algorithm on a Cellomics Array scan 4.5 according to manufacturer instructions. Average intensities for vehicle control and treated wells were compared with test compound-treated cells to determine the 50% efficacious concentration (EC50) values. This methodology was augmented with an alternative method of immune-detection for p-Akt levels. Luminex detection of p-Akt used to directly assay the client effect, Akt, as well as the competency of the signaling cascade, as indicated by phosphorylation of S6 kinase.

The next experiment has as its system A375. Briefly: Cell proliferation assay, A375. The settings on record: Homo sapiens, A-375. How it is done: (§2) A panel of cancer cell lines may be obtained from the DCTP Tumor Repository, National Cancer Institute (Frederick, Md.) or ATCC (Rockville, Md.). Cell cultures are maintained in Hyclone RPMI 1640 medium (Logan, Utah) supplemented with 10% fetal bovine serum and 20 mM HEPES buffer, final pH 7.2, at 37° C. with a 5% CO2 atmosphere. Cultures are maintained at sub-confluent densities. Human umbilical vein endothelial cells (HUVEC) are purchased from Clonetics, a division of Cambrex (Walkersville, Md.). Cultures are established from cryopreserved stocks using Clonetics EGM-2 medium supplemented with 20 mM HEPES, final pH 7.2, at 37° C. with a 5% CO2 atmosphere.
(§3) For proliferation assays, cells are seeded with the appropriate medium into 96 well plates at 1,000-2,500 cells per well, depending on the cell line, and are incubated overnight. The following day, test compound, DMSO solution (negative control), or Actinomycin D (positive control) is added to the appropriate wells as 10× concentrated stocks prepared in phosphate buffered saline. The cell plates are then incubated for an additional 2-5 days, depending on the cell line, to allow proliferation to occur. To measure cell density, 50 μL of WST-1 solution (Roche Applied Science, IN) diluted 1:5 in phosphate buffered saline is added to each well, and the cells incubated for an additional 1-5 hrs, again depending on the cell line. Optical density is determined for each well at […] using a Tecan GeniosPro plate reader (RTP, NC). The percentage of cell growth is determined by comparing the cell growth in the presence of test compounds to the cells treated with DMSO vehicle (control, 100% growth) and cells treated with Actinomycin D (10 μM, 0% growth).
(§4) Immediately after the WST-1 determination, the medium is removed from the cell lines, and the plates stored at −80° C. Using these assay plates, relative amounts of DNA in each well are determined using the Cyquant DNA assay kit from […] (Eugene, Oreg.) following the manufacturer's directions. Results for each compound treatment are compared to DMSO vehicle control (100%) and 10 μM Actinomycin D treated cells (0%).

The next experiment has as its system pErk. Briefly: AU565 imaging assay, pErk inhibition. The settings on record: Homo sapiens, 24 hours treatment. The procedure: as §1
The next experiment relates to K562. Briefly: Cell proliferation assay, K562. The following applies: Homo sapiens. How it is done:
as §2, §3, §4

The next experiment deals with NCI-H460. Briefly: Cell proliferation assay, NCI-H460. The settings on record: Homo sapiens. How it is done:
as §2, §3, §4

A further experiment has as its system PC-3. Briefly: Cell proliferation assay, PC-3. The settings on record: Homo sapiens. How it is done:
as §2, §3, §4

In the next experiment the test system is HSP70. Briefly: A375 imaging assay, HSP70 induction. The settings on record: Homo sapiens, A-375, 24 hours treatment. The procedure:
as §1

A further experiment relates to Her2. Briefly: AU565 imaging assay, Her2 degradation. The following applies: Homo sapiens, 24 hours treatment. How it is done: as §1

Turning to `Cc1nn(-c2cc(F)c(C(N)=O)c(NC3CCOC3)c2)c2c1C=CC(C)(C)C2` (stereo not drawn) [EX-012, 2-fluoro-6-(tetrahydrofuran-3-ylamino)-4-(3,6,6-trimethyl-6,7-dihydro-1H-indazol-1-yl)benzamide], the concentration giving a half-maximal response (EC50) – broadly, the concentration giving half of the maximal effect – turned out to be 73.8 nM in the experiment with pS6, 322 nM in the experiment with pErk, 45.4 nM with HSP70 and 205 nM in the experiment on Her2. The half-maximal inhibitory concentration (IC50) – broadly, the concentration at which inhibition is half-maximal – with A375 was 242 ± 192 nM; in the experiment on K562, 172 ± 72.3 nM; in the experiment on NCI-H460 (NCI-H460 (Table 2B)), 1380 ± 425 nM; in the experiment with PC-3, < 80 nM.
Take `Cc1nn(-c2cc(F)c(C(N)=O)c(N[C@H]3CCCC[C@@H]3O)c2)c2c1CCC(C)(C)C2` [EX-015, 2-fluoro-6-((1S,2S)-2-hydroxycyclohexylamino)-4-(3,6,6-trimethyl-4,5,6,7-tetrahydro-1H-indazol-1-yl)benzamide]: the EC50 with pS6 was 241 nM; in the experiment with pErk, 820 nM; with HSP70, 346 nM; in the experiment with Her2, 667 nM. Further, the IC50 came to 448 ± 50.2 nM in the experiment with A375, 359 ± 42.4 nM with K562, 1910 ± 513 nM in the experiment with NCI-H460 (NCI-H460 (Table 2B)) and 344 ± 10.2 nM with PC-3.
As for `Cc1nn(-c2cc(F)c(C(N)=O)c(N[C@H]3CC[C@H](O)CC3)c2)c2c1C=CC(C)(C)C2` [EX-008, 2-fluoro-6-((1r,4r)-4-hydroxycyclohexylamino)-4-(3,6,6-trimethyl-6,7-dihydro-1H-indazol-1-yl)benzamide], the EC50 with pS6 was 59.1 nM; in the experiment with pErk, 112 nM; with HSP70, 54 nM; in the experiment with Her2, 51 nM. For the same molecule, the concentration for half-maximal inhibition (IC50) in the experiment with A375 came out at 69.7 ± 9.3 nM; in the experiment with K562, 250 ± 77.5 nM; in the experiment on NCI-H460 (NCI-H46 (Table 2A)), 142 ± 59 nM; in the experiment with PC-3 it was 40.5 ± 7.9 nM.
Consider `Cc1nn(-c2cc(F)c(C(N)=O)c(NC3CCCCC3)c2)c2c1C=CC(C)(C)C2` [EX-010, 2-(cyclohexylamino)-6-fluoro-4-(3,6,6-trimethyl-6,7-dihydro-1H-indazol-1-yl)benzamide], for which the IC50 in the experiment on A375 came to 2260 nM; in the experiment on K562, 48000 nM; in the experiment on NCI-H460 (NCI-H46 (Table 2A)), 5080 nM; in the experiment on PC-3, 3310 nM.
Regarding `Cc1nn(-c2cc(F)c(C(N)=O)c(N[C@H]3CCC[C@@H]3O)c2)c2c1CCC(C)(C)C2` [EX-007, 2-fluoro-6-((1S,2S)-2-hydroxycyclopentylamino)-4-(3,6,6-trimethyl-4,5,6,7-tetrahydro-1H-indazol-1-yl)benzamide], the EC50 is 4.3 nM in the experiment with pS6, 1.5 nM in the experiment with pErk, 0.092 nM in the experiment on HSP70 and 0.366 nM in the experiment with Her2. Moreover, the 50% inhibitory concentration (IC50) in the experiment with A375 was determined as 1 ± 0.466 nM; in the experiment on K562 it was 92.3 ± 32.7 nM; with NCI-H460 (NCI-H460 (Table 2B)), 41.4 ± 18.4 nM; in the experiment with PC-3, 74.1 ± 70.6 nM.
For the molecule `Cc1nn(-c2cc(F)c(C(N)=O)c(N[C@@H]3CCCC[C@H]3O)c2)c2c1C=CC(C)(C)C2` [EX-014, 2-fluoro-6-((1R,2R)-2-hydroxycyclohexylamino)-4-(3,6,6-trimethyl-6,7-dihydro-1H-indazol-1-yl)benzamide], the EC50 in the experiment on pS6 is 115 nM; in the experiment on pErk it was 457 nM; in the experiment with HSP70 it was 464 nM; with Her2, 329 nM. Moreover, the IC50 worked out at 630 ± 106 nM with A375, 363 ± 57.4 nM in the experiment with K562, 1370 ± 325 nM in the experiment with NCI-H460 (NCI-H460 (Table 2B)) and 364 ± 7.8 nM in the experiment on PC-3.
Take `CC1=CC(C)(C)Cc2c1c(C)nn2-c1cc(F)c(C(N)=O)c(N[C@H]2CC[C@H](O)CC2)c1` [EX-017, 2-fluoro-6-((1R,4R)-4-hydroxycyclohexylamino)-4-(3,4,6,6-tetramethyl-6,7-dihydro-1H-indazol-1-yl)benzamide]: the half-maximal inhibitory concentration (IC50) came out at 2580 nM in the experiment on A375, 1690 nM in the experiment with K562, 2130 nM in the experiment with NCI-H460 (NCI-H46 (Table 2A)) and 1550 nM in the experiment with PC-3.
Regarding `Cc1nn(-c2cc(F)c(C(N)=O)c(N[C@H]3CC[C@H](O)CC3)c2)c2c1CCC(C)(C)C2` [EX-009, 2-fluoro-6-((1r,4r)-4-hydroxycyclohexylamino)-4-(3,6,6-trimethyl-4,5,6,7-tetrahydro-1H-indazol-1-yl)benzamide], the EC50 in the experiment with pS6 was 28.5 nM; in the experiment on pErk it was 101 nM; with HSP70, 37.2 nM; in the experiment on Her2, 35.8 nM. In addition, the concentration for half-maximal inhibition (IC50) with A375 turned out to be 76 ± 43.1 nM; in the experiment with K562, 277 ± 81.8 nM; in the experiment with NCI-H460 (NCI-H46 (Table 2A)) it was 167 ± 22.4 nM; with PC-3, 44.1 ± 6.1 nM.
`Cc1nn(-c2cc(F)c(C(N)=O)c(N[C@H]3CCOC3)c2)c2c1CCC(C)(C)C2` [EX-013, (S)-2-fluoro-6-(tetrahydrofuran-3-ylamino)-4-(3,6,6-trimethyl-4,5,6,7-tetrahydro-1H-indazol-1-yl)benzamide]: the EC50 was determined as 156 nM in the experiment with pS6, 360 nM with pErk, 77.7 nM with HSP70 and 329 nM in the experiment on Her2. Besides, the IC50 with A375 was found to be 176 ± 145 nM; in the experiment on K562, 242 ± 118 nM; with NCI-H460 (NCI-H460 (Table 2B)), 3170 ± 791 nM; with PC-3, 160 ± 81.4 nM.
With `Cc1nn(-c2cc(F)c(C(N)=O)c(N[C@H]3CC[C@H](O)CC3)c2)c2c1C(C)CC(C)(C)C2` (stereo partly drawn) [EX-016, 2-fluoro-6-((1R,4R)-4-hydroxycyclohexylamino)-4-(3,4,6,6-tetramethyl-4,5,6,7-tetrahydro-1H-indazol-1-yl)benzamide], the IC50 came to 10200 nM with A375, 6340 nM with K562, 6550 nM in the experiment with NCI-H460 (NCI-H46 (Table 2A)) and 6490 nM with PC-3.
On the same counts, the results for `Cc1nn(-c2cc(F)c(C(N)=O)c(NC3CCCCC3)c2)c2c1CCC(C)(C)C2` [EX-011, 2-(cyclohexylamino)-6-fluoro-4-(3,6,6-trimethyl-4,5,6,7-tetrahydro-1H-indazol-1-yl)benzamide] are 9520 nM, 4280 nM, 8590 nM and 5120 nM.
